{"source": "patent US20100099614A1", "about": "“Antimicrobial Peptides and Methods of Use” (priority 2008, published 2010)", "key": {"Gram-positive bacteria": {"tested_on": "Gram-positive bacteria", "conditions": "gram-positive bacteria"}, "[1]": {"experiment": "Helical structure by circular dichroism spectroscopy", "format": "physicochemical", "protocol": "The mean residue molar ellipticities of peptides were determined by circular dichroism (CD) spectroscopy, using a Jasco J-810 spectropolarimeter (Easton, Md.) at 5° C. under benign (non-denaturing) conditions (50 mM NaH2PO4/Na2HPO4/100 mM KCl, pH 7.0), hereafter referred to as benign buffer, as well as in the presence of an α-helix inducing solvent, 2,2,2-trifluoroethanol, TFE, (50 mM NaH2PO4/Na2HPO4/[…], pH 7.0 buffer/50% TFE). A 10-fold dilution of an approximately […] stock solution of the peptide analogs was loaded into a 0.1 cm quartz cell and its ellipticity scanned from 195 to 250 nm. The values of molar ellipticities of the peptide analogs at a wavelength of 222 nm were used to estimate the relative α-helicity of the peptides."}, "[2]": {"experiment": "CD temperature denaturation study", "format": "physicochemical", "conditions": "50% TFE", "protocol": "CD Temperature Denaturation Study of Peptide V681—The native peptide V681 was dissolved in 0.05% aqueous TFA containing 50% TFE, pH 2, loaded into a 0.02 cm fused silica cell and peptide ellipticity scanned from 190 to 250 nm at temperatures of 5, 15, 25, 35, 45, 55, 65 and 80° C. The spectra at different temperatures were used to mimic the alteration of peptide conformation during temperature profiling analysis in RP-HPLC. The ratio of the molar ellipticity at a particular temperature (t) relative to that at 5° C. ([θ]t−[θ]u)/([θ]5−[θ]u) was calculated and plotted against temperature in order to obtain the thermal melting profiles, where [θ]5 and [θ]u represent the molar ellipticity values for the fully folded and fully unfolded species, respectively. […] was determined in the presence of 8M urea with a value of 1500 deg·cm^2·dmol^−1 to represent a totally random coil state (31). The melting temperature (Tm) was calculated as the temperature at which the α-helix was 50% denatured (([θ]t−[θ]u)/([θ]5−θ[θ]u)=0.5) and the values were taken as a measure of α-helix stability."}, "[3]": {"experiment": "Peptide hydrophobicity by RP-HPLC retention", "format": "physicochemical", "conditions": "80° C., polar face substitution", "protocol": "Peptide Synthesis and Purification—Syntheses of the peptides were carried out by solid-phase peptide synthesis using t-butyloxycarbonyl chemistry and MBHA (4-methylbenzhydrylamine) resin (0.97 mmol/g), followed by cleavage of the peptide from the resin as described previously (117-119). However, it is understood in the art that there are other suitable instruments and methods for automated or manual peptide synthesis that could be employed to produce the peptides described herein. Peptide purification was performed by reversed-phase high-performance liquid chromatography (RP-HPLC) on a Zorbax 300 SB-C8 column (250×9.4 mm I.D.; 6.5 μm particle size, 300 Å pore size; Agilent Technologies, Little Falls, Del.) with a linear AB gradient (0.1% acetonitrile/min) at a flow rate of 2 mL/min, where eluent A was 0.2% aqueous trifluoroacetic acid (TFA), pH 2, and eluent B was 0.2% TFA in acetonitrile, where the shallow 0.1% acetonitrile/min gradient started 12% below the acetonitrile concentration required to elute the peptide on injection of analytical sample using a gradient of 1% acetonitrile/min (113). The purity of the peptides was verified by analytical RP-HPLC as described below and further characterized by mass spectrometry and amino acid analysis. Crude and purified peptides were analyzed on an Agilent 1100 series liquid chromatograph. Runs were performed on a Zorbax 300 SB-C8 column (150×2.1 mm I.D.; 5 μm particle size, 300 Å pore size) from Agilent Technologies using a linear AB gradient (1% acetonitrile/min) and a flow rate of 0.25 mL/min, where eluent A was 0.2% aqueous TFA, pH 2, and eluent B was 0.2% TFA in acetonitrile.\nAnalytical RP-HPLC of Peptides—Peptides were analyzed on an Agilent 1100 series liquid chromatograph (Little Falls, Del.). Runs were performed on a Zorbax 300 SB-C8 column (150×2.1 mm I.D.; 5 μm particle size, 300 Å pore size) from Agilent Technologies using linear AB gradient (1% acetonitrile/min) and a flow rate of 0.25 ml/min, where solvent A was 0.05% aqueous TFA, pH 2 and solvent B was 0.05% TFA in acetonitrile. Temperature profiling analyses were performed in 3° C. increments, from 5° C. to 80° C."}}, "data": [{"substance": "Ac-KWKSFLKTFKSAVKTVLHTALKAISS-NH2 [V681, reference compound]", "values": [{"measurement": "geometric mean MIC", "setting": "Gram-positive bacteria", "result": 6.3, "unit": "µg/mL"}, {"measurement": "[θ]222 in benign conditions", "setting": "[1]; 100 mM KCl, 50 mM aq. PO4, pH 7", "result": "−12,900"}, {"measurement": "[θ]222 in 50% TFE", "setting": "[1]; 50% TFE", "result": "−27,300"}, {"measurement": "α-helical content", "setting": "[1]; 50% TFE", "result": 94, "unit": "%"}, {"measurement": "α-helical content", "setting": "[1]; benign conditions", "result": 45, "unit": "%"}, {"measurement": "transition temperature Tm (50% of α-helical structure denatured)", "setting": "[2]", "result": 79.3, "unit": "°C"}, {"measurement": "change in hydrophobicity (RP-HPLC retention) relative to PVL", "setting": "[3]", "result": -0.35, "unit": "min"}]}]}
